From patent US11279733B2, “Peptide antibiotics” (priority 2017, dated 2022) come the findings set out here.

Data set [1] has as its system A. baumannii ATCC 19606. The procedure, abridged: (§1)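 Mid-log cultures grown in Mueller Hinton broth at 37° C were tested by 2-fold broth microdilution at 5×10^5 CFU/mL final. Compounds were dissolved in water and tested over a final range of 32 to 0.015 μg/mL.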
For data set [2], the system named is A. baumannii GN_093 PmxR. The procedure, abridged:
as §1

The subject of data set [3] is E. coli ATCC 25922. A digest of the protocol: as §1
Data set [4] relates to K. pneumoniae ATCC 13883. The procedure, abridged: as §1
In data set [5] the test system is K. pneumoniae ATCC 700603, MDR. The procedure, abridged: as §1
In data set [6] the test system is K. pneumoniae ATCC BAA-2146, NDM-1 pos. The procedure, abridged: as §1
The test system of data set [7] is K. pneumoniae GN_102 PmxR. A digest of the protocol: as §1
Data set [8] has as its system K. pneumoniae GN_106, PmxR. The procedure, abridged:
as §1

Data set [9] concerns P. aeruginosa ATCC 27853. The procedure, abridged: as §1
Data set [10] concerns P. aeruginosa GN_043, PmxR. The procedure, abridged: as §1
The subject of data set [11] is P. aeruginosa GN_105, PmxR. The procedure, abridged: as §1
Data set [12] deals with S. aureus ATCC 25923, MSSA. A digest of the protocol:
as §1

Data set [13] is described as follows: Cytotoxicity, resazurin assay, HEK293. The following applies: human. A digest of the protocol:
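Cells (4000/well, pre-attached 24 h) then received 5 μM resazurin for 2 h, with fluorescence measured at ex 560/em 590.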
Background: Alamar Blue is a resazurin reagent that responds to reducing activity.

A short description of data set [14]: Cytotoxicity, HK2 LDH assay. The following applies: human. A digest of the protocol: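 HK2 cells were seeded at 2000 per well in DMEM/F12 with 10% FBS and left to attach for 24 h at 37 °C, 5% CO2. They were then exposed for 24 h to 3-fold peptide dilutions starting from 600 μM solutions in quadruplicate. LDH release was read at 450 nm, and CC50 was fitted from dose-response curves.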

Data set [15] is described as follows: Cytotoxicity, resazurin assay, HepG2. The note with it: human. Here is the method: Cytotoxicity of the synthesised peptides was evaluated by comparison with commercially available colistin (polymyxin E), polymyxin B (Sigma chemical Co., St. Louis, Mo., U.S.A.) and synthetic octapeptin C4 by conducting lactate dehydrogenase (LDH) assay. CC50 values calculated based on curve fitting of dose dependent inhibition of cell growth represented the cytotoxicity of the peptide. Human kidney 2 (HK2) cells were seeded as 2000 cells per well in a 384 well cell culture plate in a final volume of 20 μL in DMEM/F12 medium (Invitrogen #11330057), in which 10% of FBS was added. Cells were incubated for 24 hours at 37° C., 5% CO2 to allow cells to attach to the plates. Similar conditions were employed for HEK293 and HepG2 cytotoxicity assays.
Cytotoxicity to HEK293 and HepG2 cells was determined using the resazurin assay (McMillian, M. K.; Li, L.; Parker, J. B.; Patel, L.; Zhong, Z.; Gunnett, J. W.; Powers, W. J.; Johnson, M. D. An improved resazurin-based cytotoxicity assay for hepatic cells; Cell Biol. Toxicol. 2002, 18, 157-173; O'Brien, J.; Wilson, I.; Orton, T.; Pognan, F. Investigation of the Alamar Blue (resazurin) fluorescent dye for the assessment of mammalian cell cytotoxicity. Eur. J. Biochem. 2000, 267, 5421-5426). In brief, HEK293 and HepG2 cells were seeded at 4000 cells/well in black-wall, clear-bottom 384-well plates (Corning, Australia) and incubated for 24 h at 37° C., 5% CO2. Compounds were then added into each well. After 24 h incubation, 5 μM resazurin was added per well and incubated at 37° C. for 2 h. Fluorescence intensity was then read using a Polarstar Omega with excitation/emission 560/590. The data was then analyzed using GraphPad Prism 6 software. CC50 values were determined using GraphPad Prism 6 software (Inc. La Jolla, Calif.).

Values after ≈ are worked out from the molar mass of the structure shown. Where two headings read alike, the source gives them in different places. Positions of bridges follow the written chain, without caps; N, C: chain ends. Non-standard residues stand in square brackets, D forms with d. Residues, ends and D or L forms follow the SMILES beside them. *: point of attachment. Cholyl = C[C@H](CCC(=O)*)[C@H]1CC[C@H]2[C@@H]3[C@H](O)C[C@@H]4C[C@H](O)CC[C@]4(C)[C@H]3C[C@H](O)[C@]12C; Decanoyl(3R-OH) = CCCCCCC[C@@H](O)CC(=O)*; X7 = CCC(C)CCCCC(O)CC(=O)*; dDab = NCC[C@@H](N)C(=O)O; Dab = NCC[C@H](N)C(=O)O Bounds are passed on as bounds.

As to `CC(C)C[C@@H]1NC(=O)[C@H](CCN)NC(=O)[C@H](CCN)NC(=O)[C@H](CC(C)C)NC(=O)[C@@H](Cc2ccccc2)NC(=O)[C@H](CCN)NC(=O)[C@@H](NC(=O)[C@@H](CCN)NC(=O)CC[C@@H](C)[C@H]2CC[C@H]3[C@@H]4[C@H](O)C[C@@H]5C[C@H](O)CC[C@]5(C)[C@H]4C[C@H](O)[C@]23C)CCNC1=O` [compound 5016, cholic acid-D-Dab-cyc[L-Dab-L-Dab-D-Phe-L-Leu-L-Dab-L-Dab-L-Leu]] (Cholyl-[dDab][Dab][Dab][dF]L[Dab][Dab]L; lactam 2-C), in data set [1], the “MIC A. baumannii ATCC 19606” value was 16 µg/mL (≈ 12.7 µM). The “MIC A. baumannii GN_093 PmxR” value in [2] (GN 093 PmxR) was determined as 8 µg/mL (≈ 6.33 µM). The “MIC E. coli ATCC 25922” value in data set [3] turned out to be 8 µg/mL (≈ 6.33 µM). In addition, in [4], the “MIC K. pneumoniae ATCC 13883” value came to 4 µg/mL (≈ 3.16 µM). In addition, the “MIC K. pneumoniae ATCC 700603, MDR” value in data set [5] turned out to be 4 µg/mL (≈ 3.16 µM). The “MIC K. pneumoniae ATCC BAA-2146, NDM-1 pos” value in data set [6] was 8 µg/mL (≈ 6.33 µM). In addition, the “MIC K. pneumoniae GN_102 PmxR” value in [7] (GN 102 PmxR) worked out at 8 µg/mL (≈ 6.33 µM). Moreover, in data set [8] (GN 106, PmxR), the “MIC K. pneumoniae GN_106, PmxR” value stood at 16 µg/mL (≈ 12.7 µM). Moreover, the “MIC P. aeruginosa ATCC 27853” value in data set [9] came to 4 µg/mL (≈ 3.16 µM). The “MIC P. aeruginosa GN_043, PmxR” value in data set [10] came out at 4 µg/mL (≈ 3.16 µM). In addition, the “MIC P. aeruginosa GN_105, PmxR” value in data set [11] (GN 105, PmxR) is 4 µg/mL (≈ 3.16 µM). For the same compound, the “MIC S. aureus ATCC 25923, MSSA” value in data set [12] was 32 µg/mL (≈ 25.3 µM). For the same compound, the CC50 at 24 h in data set [13] was found to be 48 µM; in data set [14] it was 17 µM; in data set [15], 46 µM.
As to `CCCCCCC[C@@H](O)CC(=O)N[C@@H](CCN)C(=O)N[C@H]1CCNC(=O)[C@H](CC(C)C)NC(=O)[C@H](CCN)NC(=O)[C@H](CCN)NC(=O)[C@H](C)NC(=O)[C@@H](Cc2ccccc2)NC(=O)[C@H](CCN)NC1=O` [compound 5563, 3(R)OH-nC9CO-L-Dab-cyc[L-Dab-L-Dab-D-Phe-L-Ala-L-Dab-L-Dab-L-Leu]] ({Decanoyl(3R-OH)}-[Dab][Dab][Dab][dF]A[Dab][Dab]L; lactam 2-C), in [1], the “MIC A. baumannii ATCC 19606” value is above 32 µg/mL. Also, in data set [2] (GN 093 PmxR), the “MIC A. baumannii GN_093 PmxR” value is above 32 µg/mL. In addition, in [3], the “MIC E. coli ATCC 25922” value was 32 µg/mL (≈ 31.9 µM). The “MIC K. pneumoniae ATCC 13883” value in [4] was above 32 µg/mL. In addition, the “MIC K. pneumoniae ATCC 700603, MDR” value in data set [5] is 16 µg/mL (≈ 16 µM). For the same compound, the “MIC K. pneumoniae ATCC BAA-2146, NDM-1 pos” value in data set [6] was 16 µg/mL (≈ 16 µM). In addition, the “MIC K. pneumoniae GN_102 PmxR” value in data set [7] (GN 102 PmxR) turned out to be 32 µg/mL (≈ 31.9 µM). The “MIC K. pneumoniae GN_106, PmxR” value in data set [8] (GN 106, PmxR) came to 32 µg/mL (≈ 31.9 µM). For the same compound, in data set [9], the “MIC P. aeruginosa ATCC 27853” value was found to be 2 µg/mL (≈ 2 µM). In addition, in data set [10] (P. aeruginosa GN_043, PmxR), the “MIC P. aeruginosa GN_043, PmxR” value is above 32 µg/mL. In data set [11] (GN 105, PmxR), the “MIC P. aeruginosa GN_105, PmxR” value worked out at 32 µg/mL (≈ 31.9 µM). Moreover, the “MIC S. aureus ATCC 25923, MSSA” value in data set [12] was above 32 µg/mL. In addition, the CC50 at 24 h is above 300 µM in data set [13], 158 µM in data set [14] and above 300 µM in data set [15].
Turning to `CCC(C)CCCCC(O)CC(=O)N[C@@H](CCN)C(=O)N[C@H]1CCNC(=O)[C@H](CC(C)C)NC(=O)[C@H](CCN)NC(=O)[C@H](CCN)NC(=O)[C@H](CC(C)C)NC(=O)[C@@H](Cc2ccccc2)NC(=O)[C@H](CCN)NC1=O` (stereo partly drawn) [compound 5567, nC7(8-Me)CH(OH)CH2CO-L-Dab-cyc[L-Dab-L-Dab-D-Phe-L-Leu-L-Dab-L-Dab-L-Leu]] (X7-[Dab][Dab][Dab][dF]L[Dab][Dab]L; lactam 2-C), in [1] (Table 6), the “MIC, A. baumannii ATCC 19606” value came to 8 µg/mL (≈ 7.56 µM). Moreover, the “MIC A. baumannii GN_093 PmxR” value in data set [2] (Table 6, polymyxin-resistant) came out at 16 µg/mL (≈ 15.1 µM). The “MIC, E. coli ATCC 25922” value in data set [3] (Table 6) is 8 µg/mL (≈ 7.56 µM). In addition, in [4] (Table 6), the “MIC, K. pneumoniae ATCC 13883” value worked out at 8 µg/mL (≈ 7.56 µM). The “MIC, K. pneumoniae ATCC 700603, MDR” value in data set [5] (Table 6) worked out at 8 µg/mL (≈ 7.56 µM). Besides, the “MIC, K. pneumoniae ATCC BAA-2146, NDM-1 pos” value in [6] (Table 6) was 8 µg/mL (≈ 7.56 µM). For the same compound, in [7] (Table 6, polymyxin-resistant), the “MIC K. pneumoniae GN_102 PmxR” value came out at 8 µg/mL (≈ 7.56 µM). In data set [8] (Table 6, polymyxin-resistant), the “MIC K. pneumoniae GN_106, PmxR” value stood at 4 µg/mL (≈ 3.78 µM). Also, in data set [9] (Table 6), the “MIC, P. aeruginosa ATCC 27853” value was 2 µg/mL (≈ 1.89 µM). Besides, the “MIC P. aeruginosa GN_043, PmxR” value in data set [10] (Table 6, polymyxin-resistant) was determined as 2 µg/mL (≈ 1.89 µM). Besides, in data set [11] (Table 6, polymyxin-resistant), the “MIC P. aeruginosa GN_105, PmxR” value is 2 µg/mL (≈ 1.89 µM). The “MIC, S. aureus ATCC 25923, MSSA” value in data set [12] (Table 6) was determined as 32 µg/mL (≈ 30.2 µM). Further, the results for the CC50 at 24 h in data set [13], in [14] and in data set [15] were 292 µM, 54 µM and 150 µM, respectively.
